Experimental data published in PubChem BioAssay (NCI).
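Test compounds were applied to cells in 96-well plates for 48 hours at 5 doses. TGI denotes the concentration required for complete inhibition of growth.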

Legend:
Assay in all cases: NCI-60 cell line screen, 48 h
[1] = system: 786-0 renal
[2] = system: A498 renal
[3] = system: A549 NSCLC
[4] = system: ACHN renal
[5] = system: CAKI-1 renal
[6] = system: CCRF-CEM leukemia
[7] = system: COLO 205 colon
[8] = system: DLD-1 colon
[9] = system: DMS 114 small cell lung
[10] = system: DMS 273 small cell lung
[11] = system: EKVX NSCLC
[12] = system: HCC-2998 colon
[13] = system: HCT-116 colon
[14] = system: HCT-15 colon
[15] = system: HOP-18 NSCLC
[16] = system: HOP-62 NSCLC
[17] = system: HOP-92 NSCLC
[18] = system: HT29 colon
[19] = system: IGROV1 ovarian
[20] = system: K-562 leukemia
[21] = system: KM12 colon
[22] = system: KM20L2 colon
[23] = system: LOX IMVI melanoma
[24] = system: LXFL 529 NSCLC
[25] = system: M14 melanoma
[26] = system: M19-MEL melanoma
[27] = system: MALME-3M melanoma
[28] = system: MOLT-4 leukemia
[29] = system: NCI-H23 lung
[30] = system: NCI-H522 lung
[31] = system: OVCAR-3 ovarian
[32] = system: OVCAR-4 ovarian
[33] = system: OVCAR-5 ovarian
[34] = system: OVCAR-8 ovarian
[35] = system: RPMI-8226 leukemia
[36] = system: RXF 393 renal
[37] = system: RXF-631 renal
[38] = system: SF-268 CNS
[39] = system: SF-295 CNS
[40] = system: SF-539 CNS
[41] = system: SK-MEL-2 melanoma
[42] = system: SK-MEL-28 melanoma
[43] = system: SK-MEL-5 melanoma
[44] = system: SK-OV-3 ovarian
[45] = system: SN12C renal
[46] = system: SNB-19 CNS
[47] = system: SNB-75 CNS
[48] = system: SNB-78 CNS
[49] = system: SW-620 colon
[50] = system: TK-10 renal
[51] = system: U251 CNS
[52] = system: UACC-257 melanoma
[53] = system: UACC-62 melanoma
[54] = system: UO-31 renal
[55] = system: XF 498 CNS
[56] = system: HL-60(TB) leukemia
[57] = system: NCI-H226 lung
[58] = system: NCI-H460 lung

## Nc1ccc(C(=O)N/C(=C\C=C\c2ccco2)c2nc3c4c(ccc3[nH]2)C(=O)c2ccccc2C4=O)cc1
[1]
  TGI: > 100 µM
[2]
  TGI: > 100 µM
[3]
  TGI: 97 µM
[4]
  TGI: 82 µM
[5]
  TGI: > 100 µM
[6]
  TGI: > 100 µM
[7]
  TGI: > 100 µM
[8]
  TGI: 58.3 µM
[9]
  TGI: > 100 µM
[10]
  TGI: > 100 µM
[11]
  TGI: > 100 µM
[12]
  TGI: > 100 µM
[13]
  TGI: > 100 µM
[14]
  TGI: > 100 µM
[15]
  TGI: > 100 µM
[16]
  TGI: > 100 µM
[17]
  TGI: > 100 µM
[18]
  TGI: > 100 µM
[19]
  TGI: > 100 µM
[20]
  TGI: > 100 µM
[21]
  TGI: > 100 µM
[22]
  TGI: > 100 µM
[23]
  TGI: > 100 µM
[24]
  TGI: > 100 µM
[25]
  TGI: > 100 µM
[26]
  TGI: > 100 µM
[27]
  TGI: > 100 µM
[28]
  TGI: 55.6 µM
[29]
  TGI: > 100 µM
[30]
  TGI: > 100 µM
[31]
  TGI: > 100 µM
[32]
  TGI: > 100 µM
[33]
  TGI: > 100 µM
[34]
  TGI: > 100 µM
[35]
  TGI: > 100 µM
[36]
  TGI: 95 µM
[37]
  TGI: > 100 µM
[38]
  TGI: > 100 µM
[39]
  TGI: > 100 µM
[40]
  TGI: > 100 µM
[41]
  TGI: 78.6 µM
[42]
  TGI: > 100 µM
[43]
  TGI: > 100 µM
[44]
  TGI: 81.3 µM
[45]
  TGI: > 100 µM
[46]
  TGI: > 100 µM
[47]
  TGI: 62.1 µM
[48]
  TGI: > 100 µM
[49]
  TGI: > 100 µM
[50]
  TGI: 82 µM
[51]
  TGI: > 100 µM
[52]
  TGI: > 100 µM
[53]
  TGI: > 100 µM
[54]
  TGI: 17.9 µM
[55]
  TGI: > 100 µM

## CC(=O)Nc1ccccc1S(=O)(=O)c1ccccc1
[1]
  TGI: > 100 µM
[2]
  TGI: > 100 µM
[3]
  TGI: > 100 µM
[4]
  TGI: > 100 µM
[5]
  TGI: > 100 µM
[6]
  TGI: > 100 µM
[7]
  TGI: > 100 µM
[8]
  TGI: > 100 µM
[9]
  TGI: > 100 µM
[10]
  TGI: > 100 µM
[11]
  TGI: > 100 µM
[12]
  TGI: > 100 µM
[13]
  TGI: > 100 µM
[14]
  TGI: > 100 µM
[56]
  TGI: > 100 µM
[15]
  TGI: > 100 µM
[16]
  TGI: > 100 µM
[17]
  TGI: > 100 µM
[18]
  TGI: > 100 µM
[19]
  TGI: > 100 µM
[20]
  TGI: > 100 µM
[21]
  TGI: > 100 µM
[22]
  TGI: > 100 µM
[23]
  TGI: > 100 µM
[24]
  TGI: > 100 µM
[25]
  TGI: > 100 µM
[26]
  TGI: > 100 µM
[27]
  TGI: > 100 µM
[28]
  TGI: > 100 µM
[57]
  TGI: > 100 µM
[29]
  TGI: > 100 µM
[58]
  TGI: > 100 µM
[30]
  TGI: > 100 µM
[31]
  TGI: > 100 µM
[32]
  TGI: > 100 µM
[33]
  TGI: 5.65 µM
[34]
  TGI: > 100 µM
[35]
  TGI: > 100 µM
[36]
  TGI: > 100 µM
[37]
  TGI: > 100 µM
[38]
  TGI: > 100 µM
[39]
  TGI: > 100 µM
[40]
  TGI: > 100 µM
[41]
  TGI: > 100 µM
[42]
  TGI: > 100 µM
[43]
  TGI: > 100 µM
[44]
  TGI: > 100 µM
[45]
  TGI: > 100 µM
[46]
  TGI: > 100 µM
[47]
  TGI: > 100 µM
[48]
  TGI: > 100 µM
[49]
  TGI: > 100 µM
[50]
  TGI: > 100 µM
[51]
  TGI: > 100 µM
[52]
  TGI: > 100 µM
[53]
  TGI: > 100 µM
[54]
  TGI: > 100 µM
[55]
  TGI: > 100 µM

## Cc1nc2c(o1)C(=Nc1ccccc1)c1ccccc1C2=Nc1ccccc1
[1]
  TGI: > 100 µM
[2]
  TGI: > 100 µM
[3]
  TGI: > 100 µM
[4]
  TGI: > 100 µM
[5]
  TGI: > 100 µM
[6]
  TGI: > 100 µM
[7]
  TGI: > 100 µM
[8]
  TGI: > 100 µM
[9]
  TGI: > 100 µM
[10]
  TGI: > 100 µM
[11]
  TGI: > 100 µM
[12]
  TGI: > 100 µM
[13]
  TGI: > 100 µM
[14]
  TGI: 32 µM
[56]
  TGI: > 100 µM
[15]
  TGI: > 100 µM
[16]
  TGI: > 100 µM
[17]
  TGI: > 100 µM
[18]
  TGI: > 100 µM
[19]
  TGI: > 100 µM
[20]
  TGI: > 100 µM
[21]
  TGI: > 100 µM
[22]
  TGI: > 100 µM
[23]
  TGI: > 100 µM
[24]
  TGI: > 100 µM
[25]
  TGI: > 100 µM
[26]
  TGI: > 100 µM
[27]
  TGI: > 100 µM
[28]
  TGI: > 100 µM
[29]
  TGI: > 100 µM
[58]
  TGI: > 100 µM
[30]
  TGI: > 100 µM
[31]
  TGI: > 100 µM
[32]
  TGI: > 100 µM
[33]
  TGI: > 100 µM
[34]
  TGI: > 100 µM
[35]
  TGI: > 100 µM
[36]
  TGI: > 100 µM
[37]
  TGI: > 100 µM
[38]
  TGI: > 100 µM
[39]
  TGI: > 100 µM
[40]
  TGI: > 100 µM
[41]
  TGI: > 100 µM
[43]
  TGI: > 100 µM
[44]
  TGI: > 100 µM
[45]
  TGI: > 100 µM
[46]
  TGI: > 100 µM
[47]
  TGI: > 100 µM
[48]
  TGI: > 100 µM
[49]
  TGI: 41.3 µM
[50]
  TGI: > 100 µM
[51]
  TGI: > 100 µM
[52]
  TGI: > 100 µM
[53]
  TGI: > 100 µM
[54]
  TGI: > 100 µM
[55]
  TGI: > 100 µM
